Where two headings read alike, the source gives them in different places.
What was measured:
M-tropic (BAL) HIV-1 = conditions: M-tropic (BAL)
T-tropic (R8) HIV-1 = conditions: T-tropic (R8)
R9 HIV-1 virus = assay type: cell-based
[1] = tested on: HIV-1 mediated cell-cell fusion (R8 virus); conditions: mediated cell-cell fusion (R8 virus)
[2] = target: gp41 of T-tropic HIV-1 R8 virus (HIV-1 (R8)); test: cell-based or functional assay

CC[C@H](C)[C@H](NC(=O)CNC(=O)[C@H](Cc1c[nH]c2ccccc12)NC(=O)[C@@H](NC(=O)[C@@H](NC(=O)[C@H](CC(C)C)NC(=O)[C@H](CCC(N)=O)NC(=O)[C@H](CC(C)C)NC(=O)[C@H](CC(C)C)NC(=O)[C@H](Cc1c[nH]cn1)NC(=O)[C@H](CCC(N)=O)NC(=O)[C@H](CCC(N)=O)NC(=O)[C@H](C)NC(=O)[C@H](CCC(=O)O)NC(=O)[C@@H](NC(=O)[C@H](C)NC(=O)[C@H](CCCNC(=N)N)NC(=O)[C@H](CC(C)C)NC(=O)[C@H](CC(C)C)NC(=O)[C@H](CC(N)=O)NC(=O)[C@H](CC(N)=O)NC(=O)[C@H](CCC(N)=O)NC(=O)[C@H](CCC(N)=O)NC(=O)[C@H](CCC(N)=O)NC(=O)[C@@H](NC(=O)[C@@H](NC(=O)CNC(=O)[C@H](CO)NC(=O)[C@@H]1CSC(C(=O)NCCCC[C@H](NC(=O)CCNC(=O)C2N[C@H](C(=O)N[C@@H](CO)C(=O)NCC(=O)N[C@H](C(=O)N[C@H](C(=O)N[C@@H](CCC(N)=O)C(=O)N[C@@H](CCC(N)=O)C(=O)N[C@@H](CCC(N)=O)C(=O)N[C@@H](CC(N)=O)C(=O)N[C@@H](CC(N)=O)C(=O)N[C@@H](CC(C)C)C(=O)N[C@@H](CC(C)C)C(=O)N[C@@H](CCCNC(=N)N)C(=O)N[C@@H](C)C(=O)N[C@H](C(=O)N[C@@H](CCC(=O)O)C(=O)N[C@@H](C)C(=O)N[C@@H](CCC(N)=O)C(=O)N[C@@H](CCC(N)=O)C(=O)N[C@@H](Cc3c[nH]cn3)C(=O)N[C@@H](CC(C)C)C(=O)N[C@@H](CC(C)C)C(=O)N[C@@H](CCC(N)=O)C(=O)N[C@@H](CC(C)C)C(=O)N[C@H](C(=O)N[C@H](C(=O)N[C@@H](Cc3c[nH]c4ccccc34)C(=O)NCC(=O)N[C@H](C(=O)N[C@@H](CCCCN)C(=O)N[C@@H](CCC(N)=O)C(=O)N[C@@H](CC(C)C)C(=O)N[C@@H](CCC(N)=O)C(=O)N[C@@H](C)C(=O)N[C@@H](CCCNC(=N)N)C(=O)N[C@H](C(=O)N[C@@H](CC(C)C)C(=O)O)[C@@H](C)CC)[C@@H](C)CC)C(C)C)[C@@H](C)O)[C@@H](C)CC)C(C)C)[C@@H](C)CC)CS2)C(=O)N[C@@H](CCCCNC(=O)CNC(=O)C2N[C@H](C(=O)N[C@@H](CO)C(=O)NCC(=O)N[C@H](C(=O)N[C@H](C(=O)N[C@@H](CCC(N)=O)C(=O)N[C@@H](CCC(N)=O)C(=O)N[C@@H](CCC(N)=O)C(=O)N[C@@H](CC(N)=O)C(=O)N[C@@H](CC(N)=O)C(=O)N[C@@H](CC(C)C)C(=O)N[C@@H](CC(C)C)C(=O)N[C@@H](CCCNC(=N)N)C(=O)N[C@@H](C)C(=O)N[C@H](C(=O)N[C@@H](CCC(=O)O)C(=O)N[C@@H](C)C(=O)N[C@@H](CCC(N)=O)C(=O)N[C@@H](CCC(N)=O)C(=O)N[C@@H](Cc3c[nH]cn3)C(=O)N[C@@H](CC(C)C)C(=O)N[C@@H](CC(C)C)C(=O)N[C@@H](CCC(N)=O)C(=O)N[C@@H](CC(C)C)C(=O)N[C@H](C(=O)N[C@H](C(=O)N[C@@H](Cc3c[nH]c4ccccc34)C(=O)NCC(=O)N[C@H](C(=O)N[C@@H](CCCCN)C(=O)N[C@@H](CCC(N)=O)C(=O)N[C@@H](CC(C)C)C(=O)N[C@@H](CCC(N)=O)C(=O)N[C@@H](C)C(=O)N[C@@H](CCCNC(=N)N)C(=O)N[C@H](C(=O)N[C@@H](CC(C)C)C(=O)O)[C@@H](C)CC)[C@@H](C)CC)C(C)C)[C@@H](C)O)[C@@H](C)CC)C(C)C)[C@@H](C)CC)CS2)C(=O)N[C@@H](CO)C(=O)N[C@@H](CO)C(=O)N[C@@H](C)C(N)=O)N1)[C@@H](C)CC)C(C)C)[C@@H](C)CC)[C@@H](C)O)C(C)C)C(=O)N[C@@H](CCCCN)C(=O)N[C@@H](CCC(N)=O)C(=O)N[C@@H](CC(C)C)C(=O)N[C@@H](CCC(N)=O)C(=O)N[C@@H](C)C(=O)N[C@@H](CCCNC(=N)N)C(=O)N[C@H](C(=O)N[C@@H](CC(C)C)C(=O)O)[C@@H](C)CC (stereo partly drawn) [Compound 3α-N36]
IC50 (M-tropic (BAL) HIV-1): 0.0072 µM
IC50 (T-tropic (R8) HIV-1): 0.0554 µM
percentage of inhibition of cell infection (R9 HIV-1 virus; 6 μM): around 10%
percentage of inhibition of cell infection (R9 HIV-1 virus; 200 μM): ~100%
IC50 [1]: 0.039 µM

N36 (from UniProt P04578 546-581) (peptide)
IC50, HIV-1 mediated cell-cell fusion (syncytium formation), R8 virus [2]: > 1 µM
